Assay [1] has as its system mouse model of asthma. Put plainly: Airway hyperresponsiveness and eosinophil infiltration in the airway in a mouse model of asthma. It is filed as in vivo. The conditions noted are these: 3 mg/kg orally once daily during antigen exposure, OVA-sensitized BALB/c mice. On the procedure: The mouse model of asthma was prepared as follows. For experimental use, 6-week-old male BALB/c mice were purchased from Charles River Japan (Atsugi, Kanagawa). Equal amounts of a 0.5 mg/mL solution of ovalbumin in physiological saline and a 10 mg/mL suspension of aluminum hydroxide in physiological saline were mixed to give a sensitizing fluid. With well mixing of the sensitization fluid, 0.2 mL of the fluid was intraperitoneally administered to each mouse for sensitization. About 1 week after the initial sensitization, the same procedure was performed for additional sensitization. […]
The expression of airway hyperresponsiveness (increase of airway reactivity) was evaluated by measuring, under anesthesia, airway reactivity to methacholine (MCh: acetyl-β-methylcholine chloride, Cat. No. A-2251, Sigma-Aldrich) using a respiratory function analyzer [BioSystem XA; version 2.0.2.21 for Windows (registered trademark), preamplifier: MAX2215, body plethysmography box: PLY3011, pressure transducer: Validyne DP45-28, flaw transducer: Validyne DP45-14, Buxco Electronics, Troy, N.Y., USA]. […] As an indicator of airway reactivity, respiratory resistance (RL) values recorded every 5 seconds by the respiratory function analyzer were used. After fixing a mouse to the device and confirming the RL stability, the value after intravenous administration of a physiological saline solution was recorded first. […]

Assay [2] deals with antigen-induced nasal congestion in rats. Kind of assay: Effect on antigen-induced nasal congestion in rats. It is filed as in vivo, rat. To be noted: 10 mg/kg orally, 1 hour before nasal antigen; OVA-sensitized BN rats. How it is done:
Six-week-old male BN/CrljCrlj SPF/VAF rats were purchased from Charles River Japan (Hino, Kanagawa) and used for experiments. Equal amounts of a 0.4 mg/mL ovalbumin/saline solution (OVA: Grade III, Cat. No. A-5378, Sigma-Aldrich, St. Louis, Mo., USA) and a 20 mg/mL suspension of aluminum hydroxide (alum: Cat. No. 014-01925, Wako Pure Chemical Industries) in saline were mixed to give a sensitizing fluid. First, a suspension of inactivated killed pertussis bacteria (Cat. No. 15330-91, Nacalai Tesque, Tokyo) was doubly diluted with saline. The diluted suspension was subcutaneously administered on the back of each rat at a dose of 0.1 mL (containing 10 billion bacterial cells) per rat, and immediately after that, the sensitizing fluid was intraperitoneally administered at a dose of 1 mL per rat. […]
The nasal congestion was evaluated based on the elevation of the intranasal pressure determined in the following manner. […] The pressure inside the nasal cavity was detected using a pressure transducer branched from the end of the cannula for measurement, and analyzed using Win-PULMOS-III (M.I.P.S. Inc., Osaka). The pressure inside the nasal cavity was measured for 3 minutes immediately after the connection to the cannula for measurement and the artificial ventilator, and the data was calculated for a 3-minute average.

The values that follow come from patent US20120196854A1, “PHARMACEUTICAL COMPOSITION COMPRISING AROMATIC HETEROCYCLIC COMPOUND” (Kyowa Hakko Kirin Co., Ltd., priority 2009, published 2012).

With `O=C(O)c1cc(-c2ccco2)nc2ccc3nn(-c4ccccc4)nc3c12` [Compound 133, 7-(furan-2-yl)-2-phenyl-2H-[1,2,3]triazolo[4,5-f]quinoline-9-carboxylic acid], in assay [1], the “inhibition of the expression of airway hyperresponsiveness” value worked out at 98%. The “inhibition of eosinophil infiltration in the airway” value in assay [1] (BAL fluid) amounted to 55%. The “inhibition of antigen-induced nasal congestion (intranasal pressure)” value in assay [2] is listed as 55%.
